{"source": "patent US8802597B2", "about": "“Herbicidal pyrimidines” (E I du Pont de Nemours and Company, priority 2003, dated 2014)", "assay_in_all_cases": "Test G pre/postemergence", "assay_type_in_all_cases": "in vivo", "key": {"[1]": {"test_system": "guineagrass (Panicum maximum)", "summary_of_the_method": "(§1)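 Test chemicals in a non-phytotoxic solvent blend with surfactant are applied to soil after seeding or to foliage of 2–18 cm seedlings. Greenhouse response is scored visually at 12–21 days on a 0 to 100 control scale.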"}, "[2]": {"test_system": "common chickweed (Stellaria media)", "summary_of_the_method": "as §1"}, "[3]": {"test_system": "southern sandbur (Cenchrus echinatus)", "summary_of_the_method": "as §1"}, "[4]": {"test_system": "quackgrass (Elytrigia repens)", "summary_of_the_method": "as §1"}, "[5]": {"test_system": "downy bromegrass (Bromus tectorum)", "summary_of_the_method": "as §1"}, "[6]": {"test_system": "barnyardgrass (Echinochloa crus-galli)", "summary_of_the_method": "as §1"}, "[7]": {"test_system": "prickly sida (Sida spinosa)", "summary_of_the_method": "as §1"}, "[8]": {"test_system": "common groundsel (Senecio vulgaris)", "summary_of_the_method": "as §1"}, "[9]": {"test_system": "large crabgrass (Digitaria sanguinalis)", "summary_of_the_method": "as §1"}, "[10]": {"test_system": "common ragweed (Ambrosia elatior)", "summary_of_the_method": "as §1"}, "[11]": {"test_system": "itchgrass (Rottboellia cochinchinensis)", "summary_of_the_method": "as §1"}, "[12]": {"conditions": "Postemergence, 250 g ai/ha, scale 0 to 100"}, "[13]": {"conditions": "Postemergence, 16 g ai/ha, scale 0 to 100"}, "[14]": {"conditions": "Postemergence, 31 g ai/ha, scale 0 to 100"}, "[15]": {"conditions": "Postemergence, 62 g ai/ha, scale 0 to 100"}, "[16]": {"conditions": "Postemergence, 125 g ai/ha, scale 0 to 100"}, "[17]": {"conditions": "Preemergence, 16 g ai/ha, scale 0-100"}, "[18]": {"conditions": "Preemergence, 31 g ai/ha, scale 0-100"}, "[19]": {"conditions": "Preemergence, 62 g ai/ha, scale 0-100"}, "[20]": {"conditions": "Preemergence, 125 g ai/ha, scale 0-100"}, "[21]": {"conditions": "Preemergence, 250 g ai/ha, scale 0-100"}}, "data": [{"smiles": "Nc1nc(C2CC2)nc(C(=O)[O-])c1Cl.[Na+]", "note": "[Compound 77, 6-amino-5-chloro-2-cyclopropyl-4-pyrimidinecarboxylic acid monosodium salt]", "values": [{"measurement": "Plant response rating, Guineagrass", "setting": "[1]; [12]", "value": 75}, {"measurement": "Plant response rating, Guineagrass", "setting": "[1]; [13]", "value": 0}, {"measurement": "Plant response rating, Guineagrass", "setting": "[1]; [14]", "value": 0}, {"measurement": "Plant response rating, Guineagrass", "setting": "[1]; [15]", "value": 65}, {"measurement": "Plant response rating, Guineagrass", "setting": "[1]; [16]", "value": 65}, {"measurement": "Plant response rating, Guineagrass", "setting": "[1]; [17]", "value": 30}, {"measurement": "Plant response rating, Guineagrass", "setting": "[1]; [18]", "value": 70}, {"measurement": "Plant response rating, Guineagrass", "setting": "[1]; [19]", "value": 85}, {"measurement": "Plant response rating, Guineagrass", "setting": "[1]; [20]", "value": 85}, {"measurement": "Plant response rating, Guineagrass", "setting": "[1]; [21]", "value": 95}, {"measurement": "Plant response rating, Chickweed", "setting": "[2]; [12]", "value": 100}, {"measurement": "Plant response rating, Chickweed", "setting": "[2]; [13]", "value": 10}, {"measurement": "Plant response rating, Chickweed", "setting": "[2]; [14]", "value": 80}, {"measurement": "Plant response rating, Chickweed", "setting": "[2]; [15]", "value": 90}, {"measurement": "Plant response rating, Chickweed", "setting": "[2]; [16]", "value": 90}, {"measurement": "Plant response rating, Chickweed", "setting": "[2]; [18]", "value": 70}, {"measurement": "Plant response rating, Chickweed", "setting": "[2]; [19]", "value": 90}, {"measurement": "Plant response rating, Chickweed", "setting": "[2]; [20]", "value": 100}, {"measurement": "Plant response rating, Chickweed", "setting": "[2]; [21]", "value": 100}, {"measurement": "Plant response rating, Sandbur", "setting": "[3]; [12]", "value": 40}, {"measurement": "Plant response rating, Sandbur", "setting": "[3]; [13]", "value": 0}, {"measurement": "Plant response rating, Sandbur", "setting": "[3]; [14]", "value": 0}, {"measurement": "Plant response rating, Sandbur", "setting": "[3]; [15]", "value": 10}, {"measurement": "Plant response rating, Sandbur", "setting": "[3]; [16]", "value": 35}, {"measurement": "Plant response rating, Sandbur", "setting": "[3]; [17]", "value": 0}, {"measurement": "Plant response rating, Sandbur", "setting": "[3]; [18]", "value": 20}, {"measurement": "Plant response rating, Sandbur", "setting": "[3]; [19]", "value": 100}, {"measurement": "Plant response rating, Sandbur", "setting": "[3]; [20]", "value": 100}, {"measurement": "Plant response rating, Sandbur", "setting": "[3]; [21]", "value": 100}, {"measurement": "Plant response rating, Quackgrass", "setting": "[4]; [12]", "value": 60}, {"measurement": "Plant response rating, Quackgrass", "setting": "[4]; [13]", "value": 0}, {"measurement": "Plant response rating, Quackgrass", "setting": "[4]; [14]", "value": 10}, {"measurement": "Plant response rating, Quackgrass", "setting": "[4]; [15]", "value": 40}, {"measurement": "Plant response rating, Quackgrass", "setting": "[4]; [16]", "value": 60}, {"measurement": "Plant response rating, Quackgrass", "setting": "[4]; [17]", "value": 0}, {"measurement": "Plant response rating, Quackgrass", "setting": "[4]; [18]", "value": 0}, {"measurement": "Plant response rating, Quackgrass", "setting": "[4]; [19]", "value": 10}, {"measurement": "Plant response rating, Quackgrass", "setting": "[4]; [20]", "value": 50}, {"measurement": "Plant response rating, Quackgrass", "setting": "[4]; [21]", "value": 80}, {"measurement": "Plant response rating, Bromegrass, Downy", "setting": "[5]; [12]", "value": 75}, {"measurement": "Plant response rating, Bromegrass, Downy", "setting": "[5]; [13]", "value": 0}, {"measurement": "Plant response rating, Bromegrass, Downy", "setting": "[5]; [14]", "value": 20}, {"measurement": "Plant response rating, Bromegrass, Downy", "setting": "[5]; [15]", "value": 35}, {"measurement": "Plant response rating, Bromegrass, Downy", "setting": "[5]; [16]", "value": 65}, {"measurement": "Plant response rating, Bromegrass, Downy", "setting": "[5]; [17]", "value": 0}, {"measurement": "Plant response rating, Bromegrass, Downy", "setting": "[5]; [18]", "value": 0}, {"measurement": "Plant response rating, Bromegrass, Downy", "setting": "[5]; [19]", "value": 0}, {"measurement": "Plant response rating, Bromegrass, Downy", "setting": "[5]; [20]", "value": 10}, {"measurement": "Plant response rating, Bromegrass, Downy", "setting": "[5]; [21]", "value": 75}, {"measurement": "Plant response rating, Barnyardgrass", "setting": "[6]; [12]", "value": 75}, {"measurement": "Plant response rating, Barnyardgrass", "setting": "[6]; [13]", "value": 0}, {"measurement": "Plant response rating, Barnyardgrass", "setting": "[6]; [14]", "value": 10}, {"measurement": "Plant response rating, Barnyardgrass", "setting": "[6]; [15]", "value": 40}, {"measurement": "Plant response rating, Barnyardgrass", "setting": "[6]; [16]", "value": 65}, {"measurement": "Plant response rating, Barnyardgrass", "setting": "[6]; [17]", "value": 50}, {"measurement": "Plant response rating, Barnyardgrass", "setting": "[6]; [18]", "value": 55}, {"measurement": "Plant response rating, Barnyardgrass", "setting": "[6]; [19]", "value": 75}, {"measurement": "Plant response rating, Barnyardgrass", "setting": "[6]; [20]", "value": 85}, {"measurement": "Plant response rating, Barnyardgrass", "setting": "[6]; [21]", "value": 90}, {"measurement": "Plant response rating, Prickly Sida", "setting": "[7]; [12]", "value": 80}, {"measurement": "Plant response rating, Prickly Sida", "setting": "[7]; [13]", "value": 70}, {"measurement": "Plant response rating, Prickly Sida", "setting": "[7]; [14]", "value": 75}, {"measurement": "Plant response rating, Prickly Sida", "setting": "[7]; [15]", "value": 80}, {"measurement": "Plant response rating, Prickly Sida", "setting": "[7]; [16]", "value": 80}, {"measurement": "Plant response rating, Prickly Sida", "setting": "[7]; [17]", "value": 70}, {"measurement": "Plant response rating, Prickly Sida", "setting": "[7]; [18]", "value": 75}, {"measurement": "Plant response rating, Prickly Sida", "setting": "[7]; [19]", "value": 85}, {"measurement": "Plant response rating, Prickly Sida", "setting": "[7]; [20]", "value": 90}, {"measurement": "Plant response rating, Prickly Sida", "setting": "[7]; [21]", "value": 95}, {"measurement": "Plant response rating, Groundsel", "setting": "[8]; [12]", "value": 100}, {"measurement": "Plant response rating, Groundsel", "setting": "[8]; [13]", "value": 40}, {"measurement": "Plant response rating, Groundsel", "setting": "[8]; [14]", "value": 75}, {"measurement": "Plant response rating, Groundsel", "setting": "[8]; [15]", "value": 80}, {"measurement": "Plant response rating, Groundsel", "setting": "[8]; [16]", "value": 95}, {"measurement": "Plant response rating, Groundsel", "setting": "[8]; [17]", "value": 50}, {"measurement": "Plant response rating, Groundsel", "setting": "[8]; [18]", "value": 60}, {"measurement": "Plant response rating, Groundsel", "setting": "[8]; [20]", "value": 80}, {"measurement": "Plant response rating, Groundsel", "setting": "[8]; [21]", "value": 100}, {"measurement": "Plant response rating, Crabgrass, Large", "setting": "[9]; [12]", "value": 75}, {"measurement": "Plant response rating, Crabgrass, Large", "setting": "[9]; [13]", "value": 60}, {"measurement": "Plant response rating, Crabgrass, Large", "setting": "[9]; [14]", "value": 70}, {"measurement": "Plant response rating, Crabgrass, Large", "setting": "[9]; [15]", "value": 75}, {"measurement": "Plant response rating, Crabgrass, Large", "setting": "[9]; [16]", "value": 75}, {"measurement": "Plant response rating, Crabgrass, Large", "setting": "[9]; [17]", "value": 45}, {"measurement": "Plant response rating, Crabgrass, Large", "setting": "[9]; [18]", "value": 45}, {"measurement": "Plant response rating, Crabgrass, Large", "setting": "[9]; [19]", "value": 80}, {"measurement": "Plant response rating, Crabgrass, Large", "setting": "[9]; [20]", "value": 85}, {"measurement": "Plant response rating, Crabgrass, Large", "setting": "[9]; [21]", "value": 90}, {"measurement": "Plant response rating, Ragweed", "setting": "[10]; [12]", "value": 100}, {"measurement": "Plant response rating, Ragweed", "setting": "[10]; [13]", "value": 75}, {"measurement": "Plant response rating, Ragweed", "setting": "[10]; [14]", "value": 75}, {"measurement": "Plant response rating, Ragweed", "setting": "[10]; [15]", "value": 95}, {"measurement": "Plant response rating, Ragweed", "setting": "[10]; [16]", "value": 98}, {"measurement": "Plant response rating, Ragweed", "setting": "[10]; [17]", "value": 80}, {"measurement": "Plant response rating, Ragweed", "setting": "[10]; [18]", "value": 95}, {"measurement": "Plant response rating, Ragweed", "setting": "[10]; [19]", "value": 100}, {"measurement": "Plant response rating, Ragweed", "setting": "[10]; [20]", "value": 100}, {"measurement": "Plant response rating, Ragweed", "setting": "[10]; [21]", "value": 100}, {"measurement": "Plant response rating, Itchgrass", "setting": "[11]; [12]", "value": 80}, {"measurement": "Plant response rating, Itchgrass", "setting": "[11]; [13]", "value": 0}, {"measurement": "Plant response rating, Itchgrass", "setting": "[11]; [14]", "value": 35}, {"measurement": "Plant response rating, Itchgrass", "setting": "[11]; [15]", "value": 65}, {"measurement": "Plant response rating, Itchgrass", "setting": "[11]; [16]", "value": 70}, {"measurement": "Plant response rating, Itchgrass", "setting": "[11]; [17]", "value": 0}, {"measurement": "Plant response rating, Itchgrass", "setting": "[11]; [18]", "value": 10}, {"measurement": "Plant response rating, Itchgrass", "setting": "[11]; [19]", "value": 45}, {"measurement": "Plant response rating, Itchgrass", "setting": "[11]; [20]", "value": 85}, {"measurement": "Plant response rating, Itchgrass", "setting": "[11]; [21]", "value": 90}]}]}
